Test results published in ChEMBL document CHEMBL1201862, “PubChem BioAssay data set” (2004).
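Grown in 96-well plates, cells were treated for 48 hours with each compound at five concentrations. Insufficient inhibition: endpoint recorded as highest concentration tested. The concentration for 50% growth inhibition is given as GI50.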 Activity calls are given as the source filed them. Rule as the data show it: active = GI50 up to about 1.1 µM and inactive = higher.

Columns and labels:
Test in all cases: growth of human tumour cells (NCI), 48 h
A549 = system: A549
BT-549 = system: BT-549
COLO 205 = system: COLO 205
DLD-1 = system: DLD-1
DMS-273 = system: DMS-273
HL-60 = system: HL-60
LOX IMVI = system: LOX IMVI
M19-MEL = system: M19-MEL
MDA-N = system: MDA-N
NCI-H23 = system: NCI-H23
OVCAR-8 = system: OVCAR-8
RPMI-8226 = system: RPMI-8226
SF-539 = system: SF-539
SK-MEL-28 = system: SK-MEL-28
SK-OV-3 = system: SK-OV-3
SNB-19 = system: SNB-19
SR = system: SR
SW-620 = system: SW-620
UO-31 = system: UO-31
XF498 = system: XF498

Measured: GI50

CC(C)(C)OC(=O)N[C@H]1CC2(C=C(Cl)C(=O)C(Cl)=C2)OC1=O
inactive: A549 38.3 µM | BT-549 16 µM | COLO 205 3.97 µM | DLD-1 3.66 µM | DMS-273 18.2 µM | HL-60 2.13 µM | LOX IMVI 13.2 µM | M19-MEL 17.1 µM | MDA-N 17.1 µM | NCI-H23 17.3 µM | OVCAR-8 17.1 µM | RPMI-8226 2.65 µM | SF-539 21.1 µM | SK-MEL-28 11.4 µM | SK-OV-3 > 46.5 µM | SNB-19 > 100 µM | SR 1.93 µM | SW-620 4.33 µM | UO-31 18.8 µM | XF498 19.3 µM
